Assay [1] concerns the target Estrogen receptor beta (Homo sapiens) (UniProt Q92731). Nature of the assay: Displacement of [3H]estradiol from human full length estrogen receptor beta by competitive radiometric assay relative to estradiol. For orientation: In a radioligand displacement assay an active substance lowers the binding of a labelled ligand.
Assay [2] concerns the target T1, Estrogen receptor (Homo sapiens) (UniProt P03372).
T1 sequence (whole entry): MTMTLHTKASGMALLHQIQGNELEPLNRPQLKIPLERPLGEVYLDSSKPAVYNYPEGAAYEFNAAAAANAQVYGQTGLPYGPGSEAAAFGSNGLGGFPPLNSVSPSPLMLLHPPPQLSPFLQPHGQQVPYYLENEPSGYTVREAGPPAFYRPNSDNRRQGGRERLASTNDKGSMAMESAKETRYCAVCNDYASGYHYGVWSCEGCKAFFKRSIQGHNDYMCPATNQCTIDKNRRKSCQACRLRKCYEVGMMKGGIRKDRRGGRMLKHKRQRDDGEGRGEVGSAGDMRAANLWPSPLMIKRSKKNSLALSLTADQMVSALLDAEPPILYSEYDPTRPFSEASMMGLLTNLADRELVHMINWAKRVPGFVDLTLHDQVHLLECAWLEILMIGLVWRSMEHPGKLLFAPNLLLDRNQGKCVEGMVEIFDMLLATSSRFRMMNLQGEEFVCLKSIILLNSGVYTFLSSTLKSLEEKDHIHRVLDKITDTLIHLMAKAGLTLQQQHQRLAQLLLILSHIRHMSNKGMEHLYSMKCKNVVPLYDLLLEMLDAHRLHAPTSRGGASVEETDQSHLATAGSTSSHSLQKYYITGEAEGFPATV
Kind of assay: Displacement of [3H]estradiol from human full length estrogen receptor alpha by competitive radiometric assay relative to estradiol.

SMILES strings stand for the structures.

Estrogen receptor beta (Homo sapiens), sequence (Q92731 whole entry): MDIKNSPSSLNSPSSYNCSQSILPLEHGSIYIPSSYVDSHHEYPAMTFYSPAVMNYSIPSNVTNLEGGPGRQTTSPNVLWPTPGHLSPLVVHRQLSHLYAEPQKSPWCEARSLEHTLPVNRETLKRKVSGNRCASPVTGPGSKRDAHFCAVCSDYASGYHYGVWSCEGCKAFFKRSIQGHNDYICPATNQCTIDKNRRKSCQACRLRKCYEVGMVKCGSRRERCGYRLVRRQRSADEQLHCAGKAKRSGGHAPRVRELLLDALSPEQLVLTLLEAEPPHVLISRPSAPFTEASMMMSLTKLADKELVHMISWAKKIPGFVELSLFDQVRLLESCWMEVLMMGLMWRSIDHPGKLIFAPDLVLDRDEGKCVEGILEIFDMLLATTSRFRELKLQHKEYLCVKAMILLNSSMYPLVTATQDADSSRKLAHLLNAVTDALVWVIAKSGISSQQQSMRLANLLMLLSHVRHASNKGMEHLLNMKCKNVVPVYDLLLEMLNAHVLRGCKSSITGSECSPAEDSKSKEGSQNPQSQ

Take `C[C@]12CC[C@]3(CCCc4cc(O)ccc43)C[C@H]1CC[C@H]2O`: the relative binding affinity (RBA) in assay [1] stood at 0.16; in assay [2] it was 0.05.

With `C[C@]12CC[C@]3(CCc4cc(O)ccc43)C[C@@H]1CC[C@@H]2O`, the relative binding affinity (RBA) in assay [1] stood at 0.23; in assay [2], 0.12.

As to `C[C@]12CC[C@@]3(CCc4cc(O)ccc43)C[C@H]1CC[C@@H]2O`, the relative binding affinity (RBA) is 40.5 in assay [1] and 6.4 in assay [2].

For the compound `C[C@]12CC[C@]3(C[C@H]1CC[C@@H]2O)OC(=O)c1cc(O)ccc13`, the relative binding affinity (RBA) in assay [1] was 6.07; in assay [2] it was 1.98.

For `C[C@]12CC[C@H](c3ccc(O)cc3)C[C@@H]1CC[C@@H]2O`, the relative binding affinity (RBA) is 9.97 in assay [1] and 2.38 in assay [2].

In the case of `C[C@]12CC[C@@]3(CCc4cc(O)ccc43)C[C@@H]1CC[C@@H]2O`, the relative binding affinity (RBA) in assay [1] came out at 2.43; in assay [2], 0.98.

For the compound `C[C@]12CC[C@@]3(CCCc4cc(O)ccc43)C[C@H]1CC[C@@H]2O`, the relative binding affinity (RBA) in assay [1] stood at 39.7; in assay [2], 3.7.

For the compound `C[C@]12CC[C@]3(C[C@H]1CC[C@@H]2O)OCc1cc(O)ccc13`, the relative binding affinity (RBA) in assay [1] was found to be 9.05; in assay [2] it was 2.46.

Take `C[C@]12CC[C@@H](c3ccc(O)cc3)C[C@H]1CC[C@H]2O`: the relative binding affinity (RBA) came to 0.59 in assay [1] and 0.061 in assay [2].

As for `C[C@]12CC[C@]3(CCc4cc(O)ccc43)C[C@H]1CC[C@H]2O`, the relative binding affinity (RBA) in assay [1] turned out to be 0.37; in assay [2], 0.34.

With `C[C@]12CC[C@@]3(C[C@H]1CC[C@H]2O)OCc1cc(O)ccc13`, the results for the relative binding affinity (RBA) in assay [1] and in assay [2] were 0.02 and 0.014, respectively.

In the case of `C[C@]12CC[C@]3(C[C@H]1CC[C@@H]2O)OCCc1cc(O)ccc13`, the relative binding affinity (RBA) in assay [1] worked out at 3.47; in assay [2], 0.31.

(Values after ChEMBL document CHEMBL2029345, “BC-spiro-estradiols. Synthesis and estrogen receptor binding affinity of four new estradiol isomers” (Bioorg Med Chem Lett, 2012).)
